The test system of the experiment is HIV-IIIb. Description: Test A: Antiviral Assay in MT4 Cells. As to conditions: Human immunodeficiency virus 1, IIIB, MT4, 120 h. The experiment is classed as cell-based. Put shortly: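 Read-out: CellTiter-Glo chemiluminescence after 5-day incubation at 37 °C. Compounds tested as 3-fold serial dilutions (10 concentrations, quadruplicate) in RPMI 1640 with 10% FBS, on MT-4 cells pre-infected at 37 °C with HIV-IIIb at 0.004 m.o.i.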

[1] abbreviates: Table 2, MT-4 cells infected with HIV-IIIb, 5 days of incubation, CellTiter-Glo, read-out: EC50.

pEC50: −log10 of the molar value. Where two headings read alike, the source gives them in different places.

Broadly, the pEC50 is −log10 of the EC50, conventionally taken in molar units.

For `Cc1cc2nc(-c3cnc4c(c3)c(-c3cccnc3)cn4C)sc2c(-c2ccc(Cl)cc2)c1[C@H](OC(C)(C)C)C(=O)O` [Compound 249, (S)-2-tert-butoxy-2-(7-(4-chlorophenyl)-5-methyl-2-(1-methyl-3-(pyridin-3-yl)-1H-pyrrolo[2,3-b]pyridin-5-yl)benzo[d]thiazol-6-yl)acetic acid], the pEC50 under setting [1] was 8.15.
The molecule `Cc1cc2nc(N3CCn4c(nnc4C(F)(F)F)C3)sc2c(-c2ccc(Cl)cc2)c1[C@H](OC(C)(C)C)C(=O)O` [Compound 250, (S)-2-tert-butoxy-2-(7-(4-chlorophenyl)-5-methyl-2-(3-(trifluoromethyl)-5,6-dihydro-[1,2,4]triazolo[4,3-a]pyrazin-7(8H)-yl)benzo[d]thiazol-6-yl)acetic acid] had a pEC50 of 6.63.
Turning to `Cc1cc2nc(-c3ccc4c(c3)c(C)nn4C)sc2c(-c2ccc(Cl)cc2)c1[C@H](OC(C)(C)C)C(=O)O` [Compound 254, (S)-2-tert-butoxy-2-(7-(4-chlorophenyl)-2-(1,3-dimethyl-1H-indazol-5-yl)-5-methylbenzo[d]thiazol-6-yl)acetic acid], under setting [1], the pEC50 is 8.10.
Same read-out and setting: the figure for `Cc1cc2nc(-c3cc(-c4ccc5c(c4)c(C)nn5C)nc(N4CCN(C)CC4)c3)sc2c(-c2ccc(Cl)cc2)c1[C@H](OC(C)(C)C)C(=O)O` [Compound 255, (S)-2-tert-butoxy-2-(7-(4-chlorophenyl)-2-(2-(1,3-dimethyl-1H-indazol-5-yl)-6-(4-methylpiperazin-1-yl)pyridin-4-yl)-5-methylbenzo[d]thiazol-6-yl)acetic acid] is 7.92.
As to `Cc1cc2nc(-c3ccc4c(c3)C(C)(C)C(=O)N4C)sc2c(-c2ccc(Cl)cc2)c1[C@H](OC(C)(C)C)C(=O)O` [Compound 256, (S)-2-tert-butoxy-2-(7-(4-chlorophenyl)-5-methyl-2-(1,3,3-trimethyl-2-oxoindolin-5-yl)benzo[d]thiazol-6-yl)acetic acid], under setting [1], the pEC50 was 8.05.
Still for that read-out and setting: the figure for `Cc1cc2nc(-c3ccc4c(c3)c(N(C)C)nn4C)sc2c(-c2ccc(Cl)cc2)c1[C@H](OC(C)(C)C)C(=O)O` [Compound 258, (S)-2-tert-butoxy-2-(7-(4-chlorophenyl)-2-(3-(dimethylamino)-1-methyl-1H-indazol-5-yl)-5-methylbenzo[d]thiazol-6-yl)acetic acid] is 7.89.
On the same count and under the same terms, next, `Cc1cc2nc(-c3ccc4c(N5CCN(C)CC5)nn(C)c4c3)sc2c(-c2ccc(Cl)cc2)c1[C@H](OC(C)(C)C)C(=O)O` [Compound 259, (S)-2-tert-butoxy-2-(7-(4-chlorophenyl)-5-methyl-2-(1-methyl-3-(4-methylpiperazin-1-yl)-1H-indazol-6-yl)benzo[d]thiazol-6-yl)acetic acid]: 7.92; `Cc1cc2nc(-c3ccc4c(c3)c(C3CC3)nn4C)sc2c(-c2ccc(Cl)cc2)c1[C@H](OC(C)(C)C)C(=O)O` [Compound 264, (S)-2-tert-butoxy-2-(7-(4-chlorophenyl)-2-(3-cyclopropyl-1-methyl-1H-indazol-5-yl)-5-methylbenzo[d]thiazol-6-yl)acetic acid]: 7.77; `Cc1cc2nc(-c3ccc4nn(C)c(C)c4c3)sc2c(-c2ccc(Cl)cc2)c1[C@H](OC(C)(C)C)C(=O)O` [Compound 265, (S)-2-tert-butoxy-2-(7-(4-chlorophenyl)-2-(2,3-dimethyl-2H-indazol-5-yl)-5-methylbenzo[d]thiazol-6-yl)acetic acid]: 7.82.
Regarding `Cc1cc2nc(-c3ccc4c(N)nn(C)c4c3)sc2c(-c2ccc(Cl)cc2)c1[C@H](OC(C)(C)C)C(=O)O` [Compound 266, (S)-2-(2-(3-amino-1-methyl-1H-indazol-6-yl)-7-(4-chlorophenyl)-5-methylbenzo[d]thiazol-6-yl)-2-tert-butoxyacetic acid], the pEC50 under setting [1] is 8.00.
Take `Cc1cc2nc(-c3ccc4c(C5CCN(C)CC5)nn(C)c4c3)sc2c(-c2ccc(Cl)cc2)c1[C@H](OC(C)(C)C)C(=O)O` [Compound 267, (S)-2-tert-butoxy-2-(7-(4-chlorophenyl)-5-methyl-2-(1-methyl-3-(1-methylpiperidin-4-yl)-1H-indazol-6-yl)benzo[d]thiazol-6-yl)acetic acid]: the pEC50 under setting [1] is 7.96.
As for `Cc1cc2nc(-c3ccc4c(c3)c(C3CCN(C)CC3)nn4C)sc2c(-c2ccc(Cl)cc2)c1[C@H](OC(C)(C)C)C(=O)O` [Compound 268, (S)-2-tert-butoxy-2-(7-(4-chlorophenyl)-5-methyl-2-(1-methyl-3-(1-methylpiperidin-4-yl)-1H-indazol-5-yl)benzo[d]thiazol-6-yl)acetic acid], under setting [1], the pEC50 is 7.92.
The same measure, in the same setting: next, `Cc1cc2nc(-c3ccc4c(c3)c(N3CCN(C(C)C)CC3)nn4C)sc2c(-c2ccc(Cl)cc2)c1[C@H](OC(C)(C)C)C(=O)O` [Compound 269, (S)-2-tert-butoxy-2-(7-(4-chlorophenyl)-2-(3-(4-isopropylpiperazin-1-yl)-1-methyl-1H-indazol-5-yl)-5-methylbenzo[d]thiazol-6-yl)acetic acid]: 7.92; `Cc1cc(C)n(-c2cccc(-c3nc4cc(C)c([C@H](OC(C)(C)C)C(=O)O)c(-c5ccc(Cl)cc5)c4s3)c2)n1` [Compound 272, (S)-2-tert-butoxy-2-(7-(4-chlorophenyl)-2-(3-(3,5-dimethyl-1H-pyrazol-1-yl)phenyl)-5-methylbenzo[d]thiazol-6-yl)acetic acid]: 7.11.
The same measure, in the same setting: next, `Cc1cc2nc(-n3ccnc(-c4ccc5c(cnn5C)c4)c3=O)sc2c(-c2ccc(Cl)cc2)c1[C@H](OC(C)(C)C)C(=O)O` [Compound 273, (S)-2-tert-butoxy-2-(7-(4-chlorophenyl)-5-methyl-2-(3-(1-methyl-1H-indazol-5-yl)-2-oxopyrazin-1(2H)-yl)benzo[d]thiazol-6-yl)acetic acid]: 7.28.
Take `Cc1cc2nc(N3CCN(C)C(c4ccc5c(cnn5C)c4)C3=O)sc2c(-c2ccc(Cl)cc2)c1[C@H](OC(C)(C)C)C(=O)O` (stereo partly drawn) [Compound 274, (2S)-2-tert-butoxy-2-(7-(4-chlorophenyl)-5-methyl-2-(4-methyl-3-(1-methyl-1H-indazol-5-yl)-2-oxopiperazin-1-yl)benzo[d]thiazol-6-yl)acetic acid]: under setting [1], the pEC50 was 7.51.
The same measure, in the same setting: the figure for `Cc1cc2nc(N3CCNC(c4ccc5c(cnn5C)c4)C3=O)sc2c(-c2ccc(Cl)cc2)c1[C@H](OC(C)(C)C)C(=O)O` (stereo partly drawn) [Compound 275, (2S)-2-tert-butoxy-2-(7-(4-chlorophenyl)-5-methyl-2-(3-(1-methyl-1H-indazol-5-yl)-2-oxopiperazin-1-yl)benzo[d]thiazol-6-yl)acetic acid] is 7.68.
The same measure, in the same setting: the figure for `Cc1cc2nc(N3CCN(C(=O)OC(C)(C)C)C(c4ccc5c(cnn5C)c4)C3)sc2c(-c2ccc(Cl)cc2)c1[C@H](OC(C)(C)C)C(=O)O` (stereo partly drawn) [Compound 276, (2S)-2-tert-butoxy-2-(2-(4-(tert-butoxycarbonyl)-3-(1-methyl-1H-indazol-5-yl)piperazin-1-yl)-7-(4-chlorophenyl)-5-methylbenzo[d]thiazol-6-yl)acetic acid] is 7.43; for `Cc1cc2nc(N3CCNC(c4ccc5c(cnn5C)c4)C3)sc2c(-c2ccc(Cl)cc2)c1[C@H](OC(C)(C)C)C(=O)O` (stereo partly drawn) [Compound 277, (2S)-2-tert-butoxy-2-(7-(4-chlorophenyl)-5-methyl-2-(3-(1-methyl-1H-indazol-5-yl)piperazin-1-yl)benzo[d]thiazol-6-yl)acetic acid] it is 7.59.
The same measure, in the same setting: the figure for `Cc1cc2nc(N3CCN(C(C)C)C(c4ccc5c(cnn5C)c4)C3)sc2c(-c2ccc(Cl)cc2)c1[C@H](OC(C)(C)C)C(=O)O` (stereo partly drawn) [Compound 279, (2S)-2-tert-butoxy-2-(7-(4-chlorophenyl)-2-(4-isopropyl-3-(1-methyl-1H-indazol-5-yl)piperazin-1-yl)-5-methylbenzo[d]thiazol-6-yl)acetic acid] is 7.80; for `Cc1cc2nc(-c3cccc(-c4cnc(=O)n(C)c4)c3)sc2c(-c2ccc(Cl)cc2)c1[C@H](OC(C)(C)C)C(=O)O` [Compound 280, (S)-2-tert-butoxy-2-(7-(4-chlorophenyl)-5-methyl-2-(3-(1-methyl-2-oxo-1,2-dihydropyrimidin-5-yl)phenyl)benzo[d]thiazol-6-yl)acetic acid] it is 6.61; for `Cc1cc2nc(-c3nccc(N4CCN(C)CC4)n3)sc2c(-c2ccc(Cl)cc2)c1[C@H](OC(C)(C)C)C(=O)O` [Compound 281, (S)-2-tert-butoxy-2-(7-(4-chlorophenyl)-5-methyl-2-(4-(4-methylpiperazin-1-yl)pyrimidin-2-yl)benzo[d]thiazol-6-yl)acetic acid] it is 7.51.
Take `Cc1cc2nc(-c3cncc(N4CCN(C)CC4)n3)sc2c(-c2ccc(Cl)cc2)c1[C@H](OC(C)(C)C)C(=O)O` [Compound 282, (S)-2-tert-butoxy-2-(7-(4-chlorophenyl)-5-methyl-2-(6-(4-methylpiperazin-1-yl)pyrazin-2-yl)benzo[d]thiazol-6-yl)acetic acid]: under setting [1], the pEC50 is 8.52.
Still for that read-out and setting: next, `Cc1cc2nc(-c3ccc4ncn(C)c4c3)sc2c(-c2ccc(Cl)cc2)c1[C@H](OC(C)(C)C)C(=O)O` [Compound 283, (S)-2-tert-butoxy-2-(7-(4-chlorophenyl)-5-methyl-2-(1-methyl-1H-benzo[d]imidazol-6-yl)benzo[d]thiazol-6-yl)acetic acid]: 7.29.
The same measure, in the same setting: the figure for `Cc1cc2nc(-c3ccc4c(c3)n(C)c(=O)n4C)sc2c(-c2ccc(Cl)cc2)c1[C@H](OC(C)(C)C)C(=O)O` [Compound 286, (S)-2-(tert-butoxy)-2-(7-(4-chlorophenyl)-2-(1,3-dimethyl-2-oxo-2,3-dihydro-1H-benzo[d]imidazol-5-yl)-5-methylbenzo[d]thiazol-6-yl)acetic acid] is 8.00.
Take `Cc1cc2nc(-c3ccc4nc[nH]c4c3)sc2c(-c2ccc(Cl)cc2)c1[C@H](OC(C)(C)C)C(=O)O` [Compound 287, (S)-2-(2-(1H-benzo[d]imidazol-6-yl)-7-(4-chlorophenyl)-5-methylbenzo[d]thiazol-6-yl)-2-(tert-butoxy)acetic acid]: the pEC50 under setting [1] is 6.95.
